Measured values taken from patent US9894902B2, “Herbicidal compositions comprising 4-amino-3-chloro-6-(4-chloro-2-fluoro-3-methoxyphenyl)pyridine-2-carboxylic acid or a derivative thereof and picloram or a derivative thereof” (Dow AgroSciences LLC, priority 2013, dated 2018).

Experiments:
Assay in all cases: Postemergent herbicidal activity, greenhouse, foliar-applied
Assay type in all cases: in vivo
Settings in all cases: foliar postemergence
[1] = test system: SETFA Setaria faberi Herrm. (giant foxtail)
Protocol: (§1) Evaluation of Postemergent Herbicidal Activity. Seeds or nutlets of the desired test plant species were planted in Sun Gro Metro-Mix® 360 planting mixture, which typically has a pH of 6.0 to 6.8 and an organic matter content of about 30 percent, in plastic pots with a surface area of 64 square centimeters (cm^2). […] The plants were grown for 7-21 days (d) in a greenhouse with an approximate 15 hour (h) photoperiod which was maintained at about 23-29° C. during the day and 22-28° C. during the night. Nutrients and water were added on a regular basis and supplemental lighting was provided with overhead metal halide 1000-Watt lamps as necessary. The plants were employed for testing when they reached the first or second true leaf stage.
(§2) A weighed amount, determined by the highest rate to be tested, of each test compound was placed in a 25 milliliter (mL) glass vial and was dissolved in 4 mL of a 97:3 volume per volume (v/v) mixture of acetone and dimethyl sulfoxide (DMSO) to obtain concentrated stock solutions. […] The concentrated stock solutions obtained were diluted with 20 mL of an aqueous mixture containing acetone, water, isopropyl alcohol, DMSO, Atplus 411F crop oil concentrate, and Triton® X-155 surfactant in a 48.5:39:10:1.5:1.0:0.02 v/v ratio to obtain spray solutions containing the highest application rates. Additional application rates were obtained by serial dilution of 12 mL of the high rate solution into a solution containing 2 mL of a 97:3 v/v mixture of acetone and DMSO and 10 mL of an aqueous mixture containing acetone, water, isopropyl alcohol, DMSO, Atplus 411F crop oil concentrate, and Triton X-155 surfactant in a 48.5:39:10:1.5:1.0:0.02 v/v ratio to obtain 1/2×, 1/4×, 1/8×and 1/16× rates of the high rate. Compound requirements are based upon a 12 mL application volume at a rate of 187 liters per hectare (L/ha). Formulated compounds were applied to the plant material with an overhead Mandel track sprayer equipped with 8002E nozzles calibrated to deliver 187 L/ha over an application area of 0.503 square meters (m^2) at a spray height of 18 inches ([…]) above the average plant canopy height. Control plants were sprayed in the same manner with the solvent blank.
(§3) Treatments consisted of the methyl ester of 4-amino-3-chloro-6-(4-chloro-2-fluoro-3-methoxyphenyl)pyridine-2-carboxylic acid (Cmpd 1) as technical grade material and picloram (Tordon® 22K) alone and in combination. The form of compound of formula (I) and picloram-potassium salt were applied on an acid equivalent basis.
(§4) The treated plants and control plants were placed in a greenhouse as described above and watered by subirrigation to prevent wash-off of the test compounds. After 14 d, the condition of the test plants as compared with that of the untreated plants was determined visually and scored on a scale of 0 to 100 percent where 0 corresponds to no injury and 100 corresponds to complete kill.
(§5) The values reported are % control visually rated. Colby's equation was used to determine the herbicidal effects expected from the mixtures (Colby, S.R. Calculation of the synergistic and antagonistic response of herbicide combinations. Weeds 1967, 15, 20-22.).
(§6) More specifically, the following equation was used to calculate the expected activity of mixtures containing two active ingredients, A and B: Expected=A+B−(A×B/100) • A=observed efficacy of active ingredient A at the same concentration as used in the mixture; • B=observed efficacy of active ingredient B at the same concentration as used in the mixture.

[2] = test system: BRSNW Brassica napus (winter oilseed rape)
Protocol: as §1, §2, §3, §4, §5, §6

[3] = test system: ABUTH Abutilon theophrasti Medik. (velvetleaf)
Protocol: as §1, §2, §3, §4, §5, §6

[4] = test system: VIOTR Viola tricolor L. (wild violet)
Protocol: as §1, §2, §3, §4, §5, §6

[5] = test system: CIRAR Cirsium arvense (L.) Scop. (Canada thistle)
Protocol: as §1, §2, §3, §4, §5, §6

[6] = test system: CYPES Cyperus esculentus L. (yellow nutsedge)
Protocol: as §1, §2, §3, §4, §5, §6

[7] = test system: EPHHL Euphorbia heterophylla L. (wild poinsettia)
Protocol: as §1, §2, §3, §4, §5, §6

[8] = test system: STEME Stellaria media (L.) Vill. (common chickweed)
Protocol: as §1, §2, §3, §4, §5, §6

[9] = test system: AMARE Amaranthus retroflexus L. (redroot pigweed)
Protocol: as §1, §2, §3, §4, §5, §6

[10] = test system: GLXMA Glycine max (volunteer soybean)
Protocol: as §1, §2, §3, §4, §5, §6

COC(=O)c1nc(-c2ccc(Cl)c(OC)c2F)cc(N)c1Cl [Cmpd I, methyl ester of 4-amino-3-chloro-6-(4-chloro-2-fluoro-3-methoxyphenyl)pyridine-2-carboxylic acid]
Visual Growth reduction (%) 14 Days After Application SETFA obs ([1]; Cmpd I 2.5 g ae/ha alone): 0%
Visual Growth reduction (%) 14 Days After Application SETFA obs ([1]; Cmpd I 5 g ae/ha alone): 5%
Visual Growth reduction (%) 14 Days After Application SETFA obs ([1]; Cmpd I 10 g ae/ha alone): 35%
Visual Growth reduction (%) 14 Days After Application BRSNW obs ([2]; Cmpd I 2.5 g ae/ha alone): 0%
Visual Growth reduction (%) 14 Days After Application BRSNW obs ([2]; Cmpd I 5 g ae/ha alone): 0%
Visual Growth reduction (%) 14 Days After Application BRSNW obs ([2]; Cmpd I 10 g ae/ha alone): 10%
Visual Growth reduction (%) 14 Days After Application ABUTH obs ([3]; Cmpd I 2.5 g ae/ha alone): 87%
Visual Growth reduction (%) 14 Days After Application ABUTH obs ([3]; Cmpd I 5 g ae/ha alone): 85%
Visual Growth reduction (%) 14 Days After Application ABUTH obs ([3]; Cmpd I 10 g ae/ha alone): 90%
Visual Growth reduction (%) 14 Days After Application VIOTR obs ([4]; Cmpd I 2.5 g ae/ha alone): 30%
Visual Growth reduction (%) 14 Days After Application VIOTR obs ([4]; Cmpd I 5 g ae/ha alone): 43%
Visual Growth reduction (%) 14 Days After Application VIOTR obs ([4]; Cmpd I 10 g ae/ha alone): 62%
Visual Growth reduction (%) 14 Days After Application CIRAR obs ([5]; Cmpd I 2.5 g ae/ha alone): 47%
Visual Growth reduction (%) 14 Days After Application CIRAR obs ([5]; Cmpd I 5 g ae/ha alone): 53%
Visual Growth reduction (%) 14 Days After Application CIRAR obs ([5]; Cmpd I 10 g ae/ha alone): 65%
Visual Growth reduction (%) 14 Days After Application CYPES obs ([6]; Cmpd I 2.5 g ae/ha alone): 20%
Visual Growth reduction (%) 14 Days After Application CYPES obs ([6]; Cmpd I 5 g ae/ha alone): 72%
Visual Growth reduction (%) 14 Days After Application CYPES obs ([6]; Cmpd I 10 g ae/ha alone): 96%
Visual Growth reduction (%) 14 Days After Application EPHHL obs ([7]; Cmpd I 2.5 g ae/ha alone): 85%
Visual Growth reduction (%) 14 Days After Application EPHHL obs ([7]; Cmpd I 5 g ae/ha alone): 93%
Visual Growth reduction (%) 14 Days After Application EPHHL obs ([7]; Cmpd I 10 g ae/ha alone): 100%
Visual Growth reduction (%) 14 Days After Application STEME obs ([8]; Cmpd I 2.5 g ae/ha alone): 50%
Visual Growth reduction (%) 14 Days After Application STEME obs ([8]; Cmpd I 5 g ae/ha alone): 57%
Visual Growth reduction (%) 14 Days After Application STEME obs ([8]; Cmpd I 10 g ae/ha alone): 72%
Visual Growth reduction (%) 14 Days After Application AMARE obs ([9]; Cmpd I 2.5 g ae/ha alone): 50%
Visual Growth reduction (%) 14 Days After Application AMARE obs ([9]; Cmpd I 5 g ae/ha alone): 58%
Visual Growth reduction (%) 14 Days After Application AMARE obs ([9]; Cmpd I 10 g ae/ha alone): 77%
Visual Growth reduction (%) 14 Days After Application GLXMA obs ([10]; Cmpd I 2.5 g ae/ha alone): 80%
Visual Growth reduction (%) 14 Days After Application GLXMA obs ([10]; Cmpd I 5 g ae/ha alone): 87%
Visual Growth reduction (%) 14 Days After Application GLXMA obs ([10]; Cmpd I 10 g ae/ha alone): 100%

Nc1c(Cl)c(Cl)nc(C(=O)O)c1Cl [Picloram, 4-amino-3,5,6-trichloro-2-pyridinecarboxylic acid]
Visual Growth reduction (%) 14 Days After Application SETFA obs ([1]; Picloram 12 g ae/ha alone): 0%
Visual Growth reduction (%) 14 Days After Application SETFA obs ([1]; Picloram 24 g ae/ha alone): 0%
Visual Growth reduction (%) 14 Days After Application BRSNW obs ([2]; Picloram 12 g ae/ha alone): 13%
Visual Growth reduction (%) 14 Days After Application BRSNW obs ([2]; Picloram 24 g ae/ha alone): 20%
Visual Growth reduction (%) 14 Days After Application ABUTH obs ([3]; Picloram 12 g ae/ha alone): 25%
Visual Growth reduction (%) 14 Days After Application ABUTH obs ([3]; Picloram 24 g ae/ha alone): 15%
Visual Growth reduction (%) 14 Days After Application VIOTR obs ([4]; Picloram 12 g ae/ha alone): 0%
Visual Growth reduction (%) 14 Days After Application VIOTR obs ([4]; Picloram 24 g ae/ha alone): 3%
Visual Growth reduction (%) 14 Days After Application CIRAR obs ([5]; Picloram 12 g ae/ha alone): 65%
Visual Growth reduction (%) 14 Days After Application CIRAR obs ([5]; Picloram 24 g ae/ha alone): 82%
Visual Growth reduction (%) 14 Days After Application CYPES obs ([6]; Picloram 12 g ae/ha alone): 0%
Visual Growth reduction (%) 14 Days After Application CYPES obs ([6]; Picloram 24 g ae/ha alone): 0%
Visual Growth reduction (%) 14 Days After Application EPHHL obs ([7]; Picloram 12 g ae/ha alone): 62%
Visual Growth reduction (%) 14 Days After Application EPHHL obs ([7]; Picloram 24 g ae/ha alone): 65%
Visual Growth reduction (%) 14 Days After Application STEME obs ([8]; Picloram 12 g ae/ha alone): 27%
Visual Growth reduction (%) 14 Days After Application STEME obs ([8]; Picloram 24 g ae/ha alone): 17%
Visual Growth reduction (%) 14 Days After Application AMARE obs ([9]; Picloram 12 g ae/ha alone): 63%
Visual Growth reduction (%) 14 Days After Application AMARE obs ([9]; Picloram 24 g ae/ha alone): 63%
Visual Growth reduction (%) 14 Days After Application GLXMA obs ([10]; Picloram 12 g ae/ha alone): 73%
Visual Growth reduction (%) 14 Days After Application GLXMA obs ([10]; Picloram 24 g ae/ha alone): 82%
